Values after ≈ are worked out from the molar mass of the structure shown.
Legend:
C. freundii GN346/16 = experiment: Antibacterial activity test, MIC by two-fold dilution method; type: cell-based; details: Citrobacter freundii; C. freundii GN346/16; 10^6 CFU/ml, 35° C., 18 to 20 hours; read-out: Minimum Inhibition Concentration
Procedure: (§1) The measurement was carried out in the following manner: 10^6 CFU/ml of a bacterium to be tested was inoculated on a Medium N for disc susceptibility test (manufactured by Nissui Pharmaceutical Co., Ltd.), and cultivated at 35° C. for 18 to 20 hours.

E. cloacae G-0008 = experiment: as above; type: cell-based; details: Enterobacter cloacae, G0008; E. cloacae G-0008; 10^6 CFU/ml, 35° C., 18 to 20 hours; read-out: Minimum Inhibition Concentration
Procedure: as §1

E. coli NIHJ JC-2 = experiment: as above; type: cell-based; details: Escherichia coli, NIHJJC2; E. coli NIHJ JC-2; 10^6 CFU/ml, 35° C., 18 to 20 hours; read-out: Minimum Inhibition Concentration
Procedure: as §1

K. pneumoniae PC1602 = experiment: as above; type: cell-based; details: Klebsiella pneumoniae; K. pneumoniae PC1602; 10^6 CFU/ml, 35° C., 18 to 20 hours; read-out: Minimum Inhibition Concentration
Procedure: as §1

M. morganii 1510/S-1 = experiment: as above; type: cell-based; details: Morganella morganii, 1510/S1; M. morganii 1510/S-1; 10^6 CFU/ml, 35° C., 18 to 20 hours; read-out: Minimum Inhibition Concentration
Procedure: as §1

P. aeruginosa E-2 = experiment: as above; type: cell-based; details: Pseudomonas aeruginosa, E2, read-out: Minimum Inhibition Concentration
Procedure: as §1

P. aeruginosa GN10362 = experiment: as above; type: cell-based; details: Pseudomonas aeruginosa, GN10362, read-out: Minimum Inhibition Concentration
Procedure: as §1

P. vulgaris GN76 = experiment: as above; type: cell-based; details: Proteus vulgaris, GN76, read-out: Minimum Inhibition Concentration
Procedure: as §1

S. Aureus 209P JC-1 = experiment: as above; type: cell-based; details: Staphylococcus aureus; S. Aureus 209P JC-1; 10^6 CFU/ml, 35° C., 18 to 20 hours; read-out: Minimum Inhibition Concentration
Procedure: as §1

S. epidermidis ATCC14990 = experiment: as above; type: cell-based; details: Staphylococcus epidermidis; S. epidermidis ATCC14990; 10^6 CFU/ml, 35° C., 18 to 20 hours; read-out: Minimum Inhibition Concentration
Procedure: as §1

S. marcescens No. 1 = experiment: as above; type: cell-based; details: Serratia marcescens; S. marcescens No. 1; 10^6 CFU/ml, 35° C., 18 to 20 hours; read-out: Minimum Inhibition Concentration
Procedure: as §1

S. Aureus 126 = experiment: as above; type: cell-based, Staphylococcus aureus (methicillin-resistant, MRSA); details: Staphylococcus aureus, MRSA, read-out: Minimum Inhibition Concentration
Procedure: as §1

S. Aureus 133 = experiment: as above; type: cell-based, Staphylococcus aureus (methicillin-resistant, MRSA); details: Staphylococcus aureus, MRSA, read-out: Minimum Inhibition Concentration
Procedure: as §1

[1] = Acute toxicity test in ICR mice; type: in vivo; details: mouse, in vivo, iv
Procedure: (§2) 0.5 ml of a pharmaceutical solution prepared by dissolving a compound of the present invention in a physiological saline solution for injection (80 mg/ml) was injected to the caudal veins of ICR mice (4 weeks old, male, body weight: approx. 20 g). Two weeks after the administration, the mice were observed whether they were dead or not. […] Therefore, the LD50 of this compound is >2 g/kg (>40 mg/mouse).

ICR mice = experiment: Acute toxicity test in ICR mice; type: in vivo
Procedure: as §2

Question: For `CCO/N=C(\C(=O)N[C@@H]1C(=O)N2C(C(=O)[O-])=C(C[n+]3cc4sccn4c3CNC=O)CS[C@H]12)c1nsc(N)n1` [Example 49, (6R,7R)-7-[(Z)-2-(5-Amino-1,2,4-thiadiazol-3-yl)-2-ethoxyiminoacetamide]-3-[5-(formylamino)methylimidazo[5,1-b]thiazolium-6-yl]methyl-3-cephem-4-carboxylate], which MIC (C. freundii GN346/16) is on record?
Answer: Its MIC is 0.05 µg/mL (≈ 0.0845 µM).

Question: And the MIC (E. cloacae G-0008)?
Answer: Its MIC is 0.05 µg/mL (≈ 0.0845 µM).

Question: And the MIC (E. coli NIHJ JC-2)?
Answer: The MIC was 0.05 µg/mL (≈ 0.0845 µM).

Question: What about the MIC (K. pneumoniae PC1602) of the same compound?
Answer: The MIC was 0.05 µg/mL (≈ 0.0845 µM).

Question: And the MIC (M. morganii 1510/S-1)?
Answer: Its MIC is no more than 0.025 µg/mL.

Question: What about the MIC (P. aeruginosa E-2) of the same compound?
Answer: Its MIC is 1.56 µg/mL (≈ 2.64 µM).

Question: And the MIC (P. aeruginosa GN10362)?
Answer: Its MIC is 1.56 µg/mL (≈ 2.64 µM).

Question: What about the MIC (P. vulgaris GN76) of the same compound?
Answer: The MIC was 0.39 µg/mL (≈ 0.659 µM).

Question: What about the MIC (S. Aureus 209P JC-1) of the same compound?
Answer: The MIC was 0.78 µg/mL (≈ 1.32 µM).

Question: What about the MIC (S. epidermidis ATCC14990) of the same compound?
Answer: Its MIC is 0.78 µg/mL (≈ 1.32 µM).

Question: And the MIC (S. marcescens No. 1)?
Answer: Its MIC is 0.1 µg/mL (≈ 0.169 µM).

Question: And the MIC (S. Aureus 126)?
Answer: The MIC was 6.25 µg/mL (≈ 10.6 µM).

Question: What about the MIC (S. Aureus 133) of the same compound?
Answer: Its MIC is 6.25 µg/mL (≈ 10.6 µM).

Question: And the LD50 at 336 h [1]?
Answer: The LD50 at 336 h was greater than 2000 mg/kg.

Question: And the “survival two weeks after administration” value (ICR mice; ICR mice, 0.5 ml of 80 mg/ml solution, caudal vein, 3 cases)?
Answer: The value was “all (3 cases) alive”.

Question: And the LD50 (ICR mice; mouse, in vivo)?
Answer: The LD50 was greater than 40 mg/mouse.

Reference: US5663162A, “Cephem derivatives” (priority 1993, dated 1997)
